Assay results reported in patent US9880154B2, “Method for screening drugs and animal model for same” (priority 2014, dated 2018).
Structures can show the parent of a compound that is named as a salt.

Columns and labels:
Sarcocystis neurona = experiment: Production of persistent parasitemia in a horse challenged with S. neurona (autologous leukocyte model); format: in vivo
Experimental: In a first preferred embodiment a parasite population was isolated from horses as described in an experimental model (Experimental infection of horses with culture derived Sarcocystis neurnoa merozoites as a model for equine protozoal myeloencephalitis, 2004) and used to infect a yearling thoroughbred filly. The challenge (6000 organisms/day) was used daily for 10 days. Concurrent with the challenge infection the filly was administered 1 mg/kg levamisole HCl orally for 21 days. […] Daily blood samples were taken and 5 microliters of blood were used to prepare thin layer smears followed by staining with Geimsa. Ten fields were counted to determine the presence of S. neurona. A hemocytometer was used to determine the number of parasites per ml of peripheral blood. […] At the end of fourteen days the filly was treated with decoquinate orally at 0.5 mg/kg for 10 days.

[1] = horses, 5 mg/kg (2800 mg) orally, at one hour; reportedly; cited from earlier work
S. neurona = settings: 1 mg/kg
Experimental: Field cases of idiopathic encephalitis associated with EPM due to S. neurona were identified by veterinary clinical examination. […] Signs were assessed by the Field Veterinarian by a neurological examination of gait and scored on a scale of 1-5. Attributable data was obtained from 27 Field Veterinarians. Thirty-three animals were included into the study, missing data from 21 horses prevented inclusion of these 21 animals into the study analysis. In the included data set, one Field Veterinarian submitted data for 6 animals, one Field Veterinarian submitted data from two animals, and 25 veterinarians submitted data for one animal.
Horses were evaluated for a change in gait score by subtracting the gait score after treatment from the gait score before treatment.

[2] = Day 30, levamisole HCl 1 mg/kg orally 21 days, decoquinate 0.5 mg/kg orally 10 days from end of day 14
[3] = Day 14, 1 mg/kg orally for 21 days concurrent with challenge

Structure (SMILES) | visible parasites in the blood (Sarcocystis neurona; Day 30, decoquinate orally 0.5 mg/kg for 10 days from end of day 14, after levamisole HCl 1 mg/kg for 21 days) | clinical signs of disease (Sarcocystis neurona; [2]) | plasma level [1] | parasitemia (Sarcocystis neurona; Day 10, in the serum, 1 mg/kg orally for 21 days concurrent with challenge) | clinical signs of disease (Sarcocystis neurona; Day 10, yearling filly, challenge 6000 organisms/day for 10 days, 1 mg/kg orally for 21 days) | clinical signs of disease (Sarcocystis neurona; [3]) | parasitemia (Sarcocystis neurona; [3]) | animals with gait score worse or not changed after treatment (S. neurona; 33 horses) | horses with gait score improved by at least one grade after treatment (S. neurona; 33 horses with signs of EPM not resolved with conventional treatment)
CCCCCCCCCCOc1cc2c(O)c(C(=O)OCC)cnc2cc1OCC [decoquinate] | no visible parasites in the blood | no clinical signs of disease | – | – | – | – | – | – | –
c1ccc([C@H]2CN3CCSC3=N2)cc1 [levamisole HCl] | – | no clinical signs of disease | 485 ng/mL | one million | no clinical signs | no clinical signs of disease | one million | 18% | 82%
